The fold induction is the signal under treatment as a multiple of the control signal. A higher fold induction goes with a large rise in signal. Broadly, the IC50 is the concentration that gives 50% inhibition.

Assay type in all cases: cell-based
In experiment [1] the test system is p15 protein. Briefly: Evaluation of p15 induction activity (Western blotting). The conditions noted are these: test substance 0.1 μM, 24 hrs, ACHN cells or HT-29 cells, compared to DMSO, n=2. Summed up: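 p15 protein quantified by densitometry of anti-p15 Western blots (10 μg protein per lane, mean of n=2). Samples came from HT-29 or ACHN cells given 0.1 μM compound for 24 h after 24 h plating, with DMSO as control.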

For experiment [2], the system named is colorectal cancer cell line HT-29 cells. Briefly: Growth inhibitory effect against cancer cell lines (3H-thymidine uptake), HT-29. The conditions noted are these: Homo sapiens, HT-29, inhibition of 3H-thymidine uptake; test substance 18 hrs, then 3H-thymidine 6 hrs; triplicate. Summed up:
(§1)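 IC50 = concentration reducing ^3H-thymidine incorporation to 50% of DMSO control, measured in triplicate. Compound added 24 hrs after plating (1.0×10^4 cells/well); label (0.25 μCi/well) given after 18 hrs of treatment, followed by 6 hrs further culture and scintillation counting of harvested cells.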

Experiment [3] concerns p27 protein. Briefly: p27 protein induction test (Western blotting). The conditions noted are these: test substance (0.1 1M), 24 hrs, ACHN cells or HT-29 cells, compared to DMSO, n=2. Summed up:
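p27 level taken as anti-p27 band density by densitometry, mean of n=2, with DMSO as control. Samples loaded at amount equivalent to 10 μg BSA. Cells were ACHN or HT-29, exposed 24 h to […] test substance after 24 h pre-culture.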

The subject of experiment [4] is Renal cancer cell line ACHN cell. The experiment can be described thus: Growth inhibitory effect against cancer cell lines (3H-thymidine uptake), ACHN. The conditions noted are these: Homo sapiens, ACHN. Summed up: as §1

With `CON(C)C(=O)Nc1cccc(-n2c(=O)n(C3CC3)c(=O)c3c(Nc4ccc(I)cc4F)n(C)c(=O)c(C)c32)c1` [Example 4-80], the fold induction at 0.1 µM in experiment [1] and in experiment [3] was no less than 1.5 each time. Moreover, the IC50 in experiment [2] is less than 0.01 µM; in experiment [4], 0.01 to 0.1 µM.
Turning to `Cc1c(=O)n(C)c(Nc2ccc(I)cc2F)c2c(=O)n(C3CC3)c(=O)n(-c3cccc(NC(N)=O)c3)c12` [Example 4-81], the fold induction at 0.1 µM in experiment [1] and in experiment [3] was no less than 1.5 in each case. Further, the values for the IC50 in experiment [2] and in experiment [4] were less than 0.01 µM and 0.01 to 0.1 µM, respectively.
Consider `Cc1c(=O)n(C)c(Nc2ccc(I)cc2F)c2c(=O)n(C3CC3)c(=O)n(-c3ccc4c(c3)NC(=O)C4)c12` [Example 4-88], for which the fold induction at 0.1 µM in experiment [1] and in experiment [3] was no less than 1.5 each time. Moreover, the IC50 in experiment [2] and in experiment [4] was less than 0.01 µM in each case.
Consider `Cc1c(=O)n(C)c(Nc2ccc(I)cc2F)c2c(=O)n(C3CC3)c(=O)n(-c3cccc(NC(=O)c4cn[nH]c4)c3)c12` [Example 4-89], for which the fold induction at 0.1 µM in experiment [1] and in experiment [3] was no less than 1.5 in each case. In addition, the IC50 in experiment [2] lay in the range of 0.01 to 0.1 µM; in experiment [4], 0.1 to 1 µM.
As for `Cc1c(=O)n(C)c(Nc2ccc(I)cc2F)c2c(=O)n(C3CC3)c(=O)n(-c3ccc(C(=O)O)cc3)c12` [Example 4-90], the fold induction at 0.1 µM in experiment [1] and in experiment [3] was no less than 1.5 in each case. The IC50 was 0.01 to 0.1 µM in experiment [2] and 0.1 to 1 µM in experiment [4].
On to `Cc1c(=O)n(C)c(Nc2ccc(I)cc2F)c2c(=O)n(C3CC3)c(=O)n(-c3ccc(C(N)=O)cc3)c12` [Example 4-91], for which the fold induction at 0.1 µM in experiment [1] and in experiment [3] was no less than 1.5 each time. Moreover, the IC50 in experiment [2] was less than 0.01 µM; in experiment [4], 0.01 to 0.1 µM.
Consider `CNC(=O)c1ccc(-n2c(=O)n(C3CC3)c(=O)c3c(Nc4ccc(I)cc4F)n(C)c(=O)c(C)c32)cc1` [Example 4-92], for which the fold induction at 0.1 µM in experiment [1] and in experiment [3] was no less than 1.5 in each case. For the same molecule, the results for the IC50 in experiment [2] and in experiment [4] were less than 0.01 µM and 0.01 to 0.1 µM, respectively.
Take `Cc1c(=O)n(C)c(Nc2ccc(I)cc2F)c2c(=O)n(C3CC3)c(=O)n(-c3ccc(C(=O)N(C)C)cc3)c12` [Example 4-93]: the fold induction at 0.1 µM in experiment [1] and in experiment [3] was no less than 1.5 each time. The results for the IC50 in experiment [2] and in experiment [4] were less than 0.01 µM and 0.01 to 0.1 µM, respectively.
`C=C(C)c1ccc(Nc2c3c(=O)n(C4CC4)c(=O)n(-c4cccc(NC(C)=O)c4)c3c(C)c(=O)n2C)c(F)c1` [Example 4-97]: the fold induction at 0.1 µM in experiment [1] and in experiment [3] was no less than 1.5 each time. The IC50 in experiment [2] is less than 0.01 µM; in experiment [4], 0.01 to 0.1 µM.
For `CC(=O)Nc1cccc(-n2c(=O)n(C3CC3)c(=O)c3c(Nc4ccc(C(C)C)cc4F)n(C)c(=O)c(C)c32)c1` [Example 4-98], the fold induction at 0.1 µM in experiment [1] and in experiment [3] was no less than 1.5 in each case. Further, the IC50 in experiment [2] is less than 0.01 µM; in experiment [4], 0.01 to 0.1 µM.
For the molecule `Cc1c(=O)n(C)c(Nc2ccc(I)cc2F)c2c(=O)n(C3CC3)c(=O)n(-c3ccc(F)c(NS(C)(=O)=O)c3)c12` [Example 4-101], the fold induction at 0.1 µM in experiment [1] and in experiment [3] was no less than 1.5 each time. Also, the IC50 in experiment [2] was less than 0.01 µM; in experiment [4], 0.01 to 0.1 µM.
With `C#Cc1ccc(Nc2c3c(=O)n(C4CC4)c(=O)n(-c4ccc(F)c(NC(C)=O)c4)c3c(C)c(=O)n2C)c(F)c1` [Example 4-102], the fold induction at 0.1 µM in experiment [1] and in experiment [3] was no less than 1.5 throughout. Besides, the IC50 was in the range of 0.01 to 0.1 µM in experiment [2] and 0.1 to 1 µM in experiment [4].
On to `Cc1c(=O)n(C)c(Nc2ccc(I)cc2F)c2c(=O)n(C3CC3)c(=O)n(-c3ccc4nc(O)[nH]c4c3)c12` [Example 4-103], for which the fold induction at 0.1 µM in experiment [1] and in experiment [3] was no less than 1.5 throughout. Moreover, the 50% inhibitory concentration (IC50) in experiment [2] was less than 0.01 µM; in experiment [4], 0.1 to 1 µM.
Consider `CSc1ccc(Nc2c3c(=O)n(C4CC4)c(=O)n(-c4cccc(NC(C)=O)c4)c3c(C)c(=O)n2C)c(F)c1` [Example 4-105], for which the fold induction at 0.1 µM in experiment [1] and in experiment [3] was no less than 1.5 each time. Besides, the IC50 in experiment [2] is less than 0.01 µM; in experiment [4], 0.01 to 0.1 µM.
Consider `CSc1ccc(Nc2c3c(=O)n(C4CC4)c(=O)n(-c4cccc(NS(C)(=O)=O)c4)c3c(C)c(=O)n2C)c(F)c1` [Example 4-106], for which the fold induction at 0.1 µM in experiment [1] and in experiment [3] was no less than 1.5 throughout. In addition, the IC50 in experiment [2] was less than 0.01 µM; in experiment [4], 0.01 to 0.1 µM.
`Cc1c(=O)n(C)c(Nc2ccc(I)cc2F)c2c(=O)n(C3CC3)c(=O)n(-c3ccc4nc[nH]c4c3)c12` [Example 4-107]: the fold induction at 0.1 µM in experiment [1] and in experiment [3] was no less than 1.5 in each case. Moreover, the IC50 in experiment [2] is less than 0.01 µM; in experiment [4] it was 0.01 to 0.1 µM.
Take `Cc1c(=O)n(C)c(Nc2ccc(I)cc2F)c2c(=O)n(C3CC3)c(=O)n(-c3cccc(N4C(=O)CNC4=O)c3)c12` [Example 4-108]: the fold induction at 0.1 µM in experiment [1] and in experiment [3] was no less than 1.5 each time. Besides, the IC50 is less than 0.01 µM in experiment [2] and 0.01 to 0.1 µM in experiment [4].
On to `Cc1c(=O)n(C)c(Nc2ccc(I)cc2F)c2c(=O)n(C3CC3)c(=O)n(-c3cccc(N4CC(=O)NC4=O)c3)c12` [Example 4-109], for which the fold induction at 0.1 µM in experiment [1] and in experiment [3] was no less than 1.5 throughout. Further, the IC50 in experiment [2] is less than 0.01 µM; in experiment [4], 0.01 to 0.1 µM.
As to `Cc1c(=O)n(C)c(Nc2ccc(I)cc2F)c2c(=O)n(C3CC3)c(=O)n(-c3cccc(NC4=NCCO4)c3)c12` [Example 4-110], the fold induction at 0.1 µM in experiment [1] and in experiment [3] was no less than 1.5 in each case. Also, the IC50 was less than 0.01 µM in experiment [2] and 0.01 to 0.1 µM in experiment [4].
`Cc1c(=O)n(C)c(Nc2ccc(I)cc2F)c2c(=O)n(C3CC3)c(=O)n(-c3cccc(NC=O)c3)c12` [Example 4-113]: the fold induction at 0.1 µM in experiment [1] and in experiment [3] was no less than 1.5 each time. Also, the IC50 in experiment [2] and in experiment [4] was less than 0.01 µM throughout.
With `Cc1c(=O)n(C)c(Nc2ccc(I)cc2F)c2c(=O)n(C3CC3)c(=O)n(-c3cccc(N4CCNS4(=O)=O)c3)c12` [Example 4-114], the fold induction at 0.1 µM in experiment [1] and in experiment [3] was no less than 1.5 throughout. For the same molecule, the figures for the IC50 in experiment [2] and in experiment [4] were less than 0.01 µM and 0.01 to 0.1 µM, respectively.
In the case of `Cc1c(=O)n(C)c(Nc2ccc(I)cc2F)c2c(=O)n(C3CC3)c(=O)n(-c3ccc4cn[nH]c4c3)c12` [Example 4-115], the fold induction at 0.1 µM in experiment [1] and in experiment [3] was no less than 1.5 throughout. Further, the values for the IC50 in experiment [2] and in experiment [4] were less than 0.01 µM and 0.01 to 0.1 µM, respectively.
Turning to `Cc1c(=O)n(C)c(Nc2ccc(I)cc2F)c2c(=O)n(C3CC3)c(=O)n(-c3ccc(NS(C)(=O)=O)c(Cl)c3)c12` [Example 4-116], the fold induction at 0.1 µM in experiment [1] and in experiment [3] was no less than 1.5 each time. In addition, the IC50 in experiment [2] was less than 0.01 µM; in experiment [4], 0.1 to 1 µM.
Take `Cc1cc(-n2c(=O)n(C3CC3)c(=O)c3c(Nc4ccc(I)cc4F)n(C)c(=O)c(C)c32)ccc1NS(C)(=O)=O` [Example 4-117]: the fold induction at 0.1 µM in experiment [1] and in experiment [3] was no less than 1.5 in each case. Moreover, the IC50 in experiment [2] is less than 0.01 µM; in experiment [4], 0.1 to 1 µM.
For the molecule `Cc1c(=O)n(C)c(Nc2ccc(I)cc2F)c2c(=O)n(C3CC3)c(=O)n(-c3ccc4c(c3)NC(=O)CO4)c12` [Example 4-118], the fold induction at 0.1 µM in experiment [1] and in experiment [3] was no less than 1.5 in each case. The IC50 is less than 0.01 µM in experiment [2] and 0.01 to 0.1 µM in experiment [4].
Turning to `Cc1c(=O)n(C)c(Nc2ccc(I)cc2F)c2c(=O)n(C)c(=O)n(-c3ccc(S(N)(=O)=O)cc3)c12` [Example 4-119], the fold induction at 0.1 µM in experiment [1] and in experiment [3] was no less than 1.5 throughout. The IC50 in experiment [2] is less than 0.01 µM; in experiment [4] it was 0.01 to 0.1 µM.
Regarding `CSc1ccc(Nc2c3c(=O)n(C4CC4)c(=O)n(-c4cccc(NS(N)(=O)=O)c4)c3c(C)c(=O)n2C)c(F)c1` [Example 4-120], the fold induction at 0.1 µM in experiment [1] and in experiment [3] was no less than 1.5 throughout. The IC50 was less than 0.01 µM in experiment [2] and 0.01 to 0.1 µM in experiment [4].
Take `Cc1c(=O)n(C)c(Nc2ccc(I)cc2F)c2c(=O)n(C3CC3)c(=O)n(-c3ccc4[nH]nnc4c3)c12` [Example 4-121]: the fold induction at 0.1 µM in experiment [1] and in experiment [3] was no less than 1.5 throughout. Moreover, the concentration for half-maximal inhibition (IC50) in experiment [2] was less than 0.01 µM; in experiment [4] it was 0.01 to 0.1 µM.
Consider `Cc1c(=O)n(C)c(Nc2ccc(I)cc2F)c2c(=O)n(C3CC3)c(=O)n(-c3cccc(N4CCN(C)CC4=O)c3)c12` [Example 4-122], for which the fold induction at 0.1 µM in experiment [1] and in experiment [3] was no less than 1.5 each time. Moreover, the IC50 in experiment [2] is less than 0.01 µM; in experiment [4] it was 0.01 to 0.1 µM.
On to `Cc1c(=O)n(C)c(Nc2ccc(I)cc2F)c2c(=O)n(C3CC3)c(=O)n(-c3ccc4c(c3)NC(=O)CC4)c12` [Example 4-123], for which the fold induction at 0.1 µM in experiment [1] and in experiment [3] was no less than 1.5 each time. Moreover, the results for the IC50 in experiment [2] and in experiment [4] were less than 0.01 µM and 0.1 to 1 µM, respectively.

These data come from patent US20180273531A1, “PYRIMIDINE COMPOUND AND MEDICAL USE THEREOF” (Japan Tobacco Inc., priority 2004, published 2018).
